# In publication PMC5124248, “Antitumor activity of TY-011 against gastric cancer by inhibiting Aurora A, Aurora B and VEGFR2 kinases” (Journal of Experimental & Clinical Cancer Research : CR, 2016):
# Several values for one entry are separate records, joined by “and”; a condition that tells them apart may be missing. Equal values may be shown once. Entries after “also recorded” stand apart in the source; their conditions may differ. Read-outs that look alike come from different tables or passages of the source. Marks after values point to notes of the source that are not given here.
# What was measured:
# p-Aurora A (T288) = test: Cellular Aurora A phosphorylation (western blot, immunofluorescence) in MGC-803 cells; assay type: cell-based, human
# Protocol: The proteins of whole cell lysates were prepared in RIPA buffer containing protease and phosphatase inhibitors (Thermo Fisher Scientific, Waltham, MA, USA), and quantified by the bicinchoninic acid (BCA) method. Immunoblotting analysis of proteins in cell lysates was performed as previously described. Primary antibodies used were as follows: anti-Aurora A (#12100), anti-p-Aurora A (Thr288) (#3079), anti-Histone H3 (#4499), and anti-p-Histone H3 (Ser10) (#9701), and anti-cleaved caspase 3 (#9661) were purchased from Cell Signaling Technology (Danvers, MA, USA); anti-PARP-1 (#sc-8007) and anti-GAPDH (#sc-25778) were purchased from Santa Cruz (CA, USA).
# Cells were cultured on glass slides coated with 0.05 mg/ml PDL (Sigma-aldrich, St. Louis, MO, USA) in the presence of TY-011 (0.8 μM) or equivalent amount of DMSO for 24 h. The cells were fixed in 4% paraformaldehyde at room temperature, then permeabilized with 0.15% Triton-X100 and blocked in 3% BSA in PBS. The primary antibodies were incubated with slides at 1:100 dilution in PBS containing 3% BSA in a wet chamber at 4 °C overnight. […] The images were captured with FCFM (fluorescence confocal microscope) (Olympus FV1000 IX81, Tokyo, Japan) under appropriate excitation and emission filters or phase-contrast microscope (Olympus IX73, Tokyo, Japan). […]
# SGC-7901 cells [1] = test: Annexin V/PI apoptosis analysis, SGC-7901; assay type: cell-based, human; details: 48 h (14.1% control)
# Protocol: Apoptosis was detected by FITC Annexin V Apoptosis Detection Kit I according to the manufacturer’s instructions (Dojindo, Kumamoto, Japan) to determine the phosphatidyl serine exposure. Apoptotic cells were quantified by a flow cytometer (Guava EasyCyte 6HT-2 L, Merck Millipore, Billerica, MA, USA) using the InCyte software. At least 10 000 cells were analyzed for each data point.
# Aurora B = target: T1, Aurora B (Homo sapiens, UniProt Q96GD4); test: HTRF KinEASE-STK kinase assay, Aurora B; assay type: biochemical
# T1 construct: gift from Professor Jia Li, Shanghai Institute of Materia Medica/Chinese Academy of Sciences
# T1 sequence (Q96GD4 whole entry): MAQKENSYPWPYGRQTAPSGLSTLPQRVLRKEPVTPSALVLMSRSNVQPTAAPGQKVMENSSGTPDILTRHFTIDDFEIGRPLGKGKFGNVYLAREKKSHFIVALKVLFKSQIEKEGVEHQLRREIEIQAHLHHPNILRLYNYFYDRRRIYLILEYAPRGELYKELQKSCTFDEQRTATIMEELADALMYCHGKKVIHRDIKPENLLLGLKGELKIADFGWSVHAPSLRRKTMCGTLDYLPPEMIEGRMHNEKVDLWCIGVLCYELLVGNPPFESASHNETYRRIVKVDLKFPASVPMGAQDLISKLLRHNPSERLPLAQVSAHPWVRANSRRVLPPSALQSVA
# Source text: The inhibition of TY-011 on activity of Aurora A, Aurora B and VEGFR2 was characterized by HTRF® KinEASE™-STK/TK kit according to the manufacturer’s instructions (Cisbio Assays, Codolet, France). Aurora A and Aurora B were gifts from Professor Jia Li, Shanghai Institute of Materia Medica/Chinese Academy of Sciences. VEGFR2 was purchased from Carna Biosciences (Kobe, Japan).
# human MGC-803 xenograft = test: Antitumor activity in vivo, MGC-803 xenograft in nude mice; design: species or system BALB/c nu/nu mice; details: for Inhibition rate (%): by tumor weight; for Body weight (g) End / Body weight (g) Start / Tumor volume (mm^3) End / Tumor volume (mm^3) Start / Tumor weight: mean ± SEM; for Tumor weight: control 0.79 g
# Protocol: The animals were housed in specific pathogen-free (SPF) conditions at Key Laboratory of Brain Functional Genomics, Ministry of Education, and were acclimatized for a week prior to use. […] When the tumors reached a mean group size of 100 ~ 150 mm^3, the mice were randomized into control and treatment groups to receive treatment accordingly. […] The tumor growth was recorded with the measurement of length (L) and width (W) by caliper every other day, and calculated as tumor volume (V) = L × W^2/2. Meanwhile, the body weights of mice were recorded. The tumor volume at day n was expressed as relative tumor volume (RTV) according to the following formula: RTV% = (TVn/TV0) ×100%, where TVn is the tumor volume at day n and TV0 is the tumor volume at day 0. The therapeutic effect of treatment was calculated with formula T/C (%) = mean RTV of the treated group/mean RTV of the control group × 100%. […] The tumor regression of individual mouse was defined as the tumor volume at the end was less than the tumor volume when treatment was initiated.
# SGC-7901 cells [2] = test: CCK-8 cell proliferation assay, SGC-7901; assay type: cell-based; details: Homo sapiens; SGC-7901, CCK-8, Fig. 3
# Protocol: During the logarithmic growth phase, each cell line was seeded in a 96-well tissue culture plate (Thermo Fisher Scientific, Waltham, MA, USA) at a predetermined density in complete medium, attached overnight and treated with compound for the indicated time. The medium was discarded and replaced with 10% CCK-8 (Dojindo, Kumamoto, Japan) in complete medium, then incubated the plates for another 2 h. The OD450 was measured with SpectraMax M5 (Molecular Devices, CA, USA). A background absorbance of ODblank was subtracted from all wells. The survival rate was determined with following formula: Survival rate (%) = ODcompound/ODDMSO × 100%. The IC50 values were calculated by concentration − response curve fitting using the four parameter method.
# [3] = 3 mg/kg oral once a day for 13 days
# [4] = 6 mg/kg oral once a day for 13 days
# [5] = 9 mg/kg oral once a day for 13 days
smiles,measurement,setting,value
"CCc1cc2c(cn1)C(c1ccccc1Cl)=Nc1c(n[nH]c1C)N2 [TY-011, 9-(2-chloro-phenyl)-6-ephyl-1-methyl-2,4-dihydro-2,3,4,7,10-pentaaza-benzo[f]azulene]","Aurora A green foci in mitotic cells, immunofluorescence","p-Aurora A (T288); MGC-803, 0.8 μM, 24 h",became weaker or even disappeared
same,"p-Aurora A (T288), western blot","p-Aurora A (T288); MGC-803 synchronized with nocodazole (100 nM) 16 h, then various concentrations for 24 h",decreased in a concentration-dependent manner
same,apoptotic cells,"SGC-7901 cells [1]; SGC-7901, 0.25 μM",17.2%
same,apoptotic cells,"SGC-7901 cells [1]; SGC-7901, 0.5 μM",28.4%
same,apoptotic cells,"SGC-7901 cells [1]; SGC-7901, 1 μM",54.3%
same,IC50,"Aurora B; Table S1, read-out: IC50 Aurora B",90 nM
same,IC50,"Aurora B; mean ± SD of three independent experiments, read-out: Aurora B IC50",93.9 ± 33.7 nM
same,T/C (%),human MGC-803 xenograft; [3],54.55%
same,TGI (%),human MGC-803 xenograft; [3],59.41%
same,Inhibition rate (%),human MGC-803 xenograft; [3],64.9%
same,Body weight (g) End,human MGC-803 xenograft; [3],21.8 ± 0.1 g
same,Body weight (g) Start,human MGC-803 xenograft; [3],20.8 ± 0.1 g
same,Tumor volume (mm^3) End,human MGC-803 xenograft; [3],433.6 ± 16.2*** mm^3
same,Tumor volume (mm^3) Start,human MGC-803 xenograft; [3],192.8 ± 7.1 mm^3
same,Tumor weight,human MGC-803 xenograft; [3],0.28 g and 0.28 ± 0.02 g
same,T/C (%),human MGC-803 xenograft; [4],21.82%
same,TGI (%),human MGC-803 xenograft; [4],103.77%
same,tumor regression (share of mice),"human MGC-803 xenograft; 6 mg/kg oral once a day for 13 days, 6/8 mice",75%
same,Inhibition rate (%),human MGC-803 xenograft; [4],87.7%
same,Body weight (g) End,human MGC-803 xenograft; [4],20.3 ± 0.2 g
same,Body weight (g) Start,human MGC-803 xenograft; [4],20.9 ± 0.1 g
same,Tumor volume (mm^3) End,human MGC-803 xenograft; [4],168.8 ± 7.1*** mm^3
same,Tumor volume (mm^3) Start,human MGC-803 xenograft; [4],191.2 ± 6.2 mm^3
same,Tumor weight,human MGC-803 xenograft; [4],0.10 g and 0.10 ± 0.01 g
same,T/C (%),human MGC-803 xenograft; [5],14.53%
same,TGI (%),human MGC-803 xenograft; [5],113.09%
same,tumor regression (share of mice),"human MGC-803 xenograft; 9 mg/kg oral once a day for 13 days, 8/8 mice",100%
same,Inhibition rate (%),human MGC-803 xenograft; [5],89.0%
same,Body weight (g) End,human MGC-803 xenograft; [5],21.7 ± 0.1 g
same,Body weight (g) Start,human MGC-803 xenograft; [5],21.4 ± 0.1 g
same,Tumor volume (mm^3) End,human MGC-803 xenograft; [5],111.4 ± 3.6*** mm^3
same,Tumor volume (mm^3) Start,human MGC-803 xenograft; [5],189.0 ± 4.9 mm^3
same,Tumor weight,human MGC-803 xenograft; [5],0.09 g and 0.09 ± 0.01 g
same,drug-related deaths and body weight of mice,"human MGC-803 xenograft; 3, 6 and 9 mg/kg oral once a day for 13 days",did not affect the body weight of mice; also recorded: did not cause drug-related deaths or any loss in body weight of mice
same,"damages to vital organs (heart, liver, spleen, lung and kidney) or clinical signs","human MGC-803 xenograft; mice treated with TY-011, data not shown",no obvious damages to vital organs
same,IC50,SGC-7901 cells [2],570 ± 30 nM
